2 molecules from patent US7033996B2, “Method for the treatment of vitamin D related disease” (University of Medicine & Dentistry of New Jersey, priority 2001, dated 2006) can be followed below.

The subject of test [1] is C/EBPβ mRNA. Kind of test: Time course of mRNA induction by Northern blot in UMR osteoblastic cells. The format is cell-based. The conditions noted are these: time course 0–24 h.
For test [2], the system named is C/EBPβ protein. Kind of test: Western blot of C/EBPβ protein in primary murine osteoblasts. The test is classed as cell-based. (In general: In western blotting, separated proteins are transferred to a membrane and probed.)
Excerpt: Induction of C/EBPβ protein is examined by Western blot using nuclear extracts (antibody from Santa Cruz).
The test system of test [3] is C/EBPβ. Description: Northern analysis verifying C/EBPβ induction in kidney and osteoblastic cells. The test is classed as cell-based.
Test [4] has as its system 24(OH)ase mRNA. Kind of test: Time course of mRNA induction by Northern blot in UMR osteoblastic cells. The conditions noted are these: time course 0–24 h. The test is classed as cell-based.
Test [5] has as its system hVDR promoter. Kind of test: PKA mediated hVDR promoter (-1500/+60) luciferase transcription with cotransfected C/EBPβ. The format is cell-based, human. The conditions noted are these: JEG cells, 2 μg VDR promoter, 1 μg PKA expression vector, 5 μg C/EBPβ. The method, then: FIG. 2 is an illustration of C/EBPβ enhancement of PKA mediated transcriptional activation of hVDR. 2 μg of the VDR promoter (−1500/+60) cotransfected in JEG cells with 1 μg of PKA expression vector in the presence or absence of 5 μg C/EBPβ.
cAMP or PTH induced enhancement of 24(OH)ase transcription is due at least in part to an upregulation of VDR. Since two putative C/EBPβ sites have been reported in the hVDR promoter (at −1490 and at −920; 143) the determination of the effect of C/EBPβ on VDR promoter activity is important. We have isolated the hVDR promoter fragment −1500/+60 by PCR and ligated it into the PGL-2 luciferase vector and found in our studies that C/EBPβ enhances PKA mediated transcription of the VDR (FIG. 2).

Test [6] concerns rat 24(OH)ase promoter. Description: 1,25(OH)2D3 induced 24(OH)ase promoter transcription with cotransfected C/EBPβ. Conditions: COS cells cotransfected with hVDR and C/EBPβ, 1,25(OH)2D3 for 24 h.

Entries after “also recorded” stand apart in the source; their conditions may differ.

Turning to `C=C1/C(=C\C=C2/CCC[C@]3(C)[C@@H]([C@H](C)CCCC(C)(C)O)CC[C@@H]23)C[C@@H](O)C[C@@H]1O` [1,25(OH)2D3, 1,25-dihydroxyvitamin D3], the “first significant induction of C/EBPβ mRNA after treatment” value in test [1] came to 3 h. For the same molecule, in test [2], the “induction of C/EBPβ protein by Western blot” value is reported as “induction”. In test [3], the “induction of C/EBPβ by Northern analysis” value was “induction”. Moreover, the “first significant induction of 24(OH)ase mRNA after treatment” value in test [4] is reported as 9 h.

B1: C/EBPβ: CCAATT enhancer binding protein β, a transcription factor, supplied by pMEX C/EBPβ expression vector (protein, listed as Homo sapiens)
chain: APAPAPASSGQHHDFLSDLFSDDYGGKNCKKPAEYGYVSLGRLGAAKGAHPPPPPPPPPAELKAEPGFEPADCKRKEEAGAPGGGAGMAAGFPYALRAGSSGSLSTSSSSSPPGTPSPADAKAPPTACYAGAGPAPSQVKSKAKKTVRRERNNIAVRKSRDKAKMRNLETQHKVLELTAENERLQKKVEQLSRELSPEPLLASSGHC
For B1, the “effect of C/EBPβ on PKA mediated transcription of the VDR” value in test [5] is reported as “enhances”. The “effect of C/EBPβ on 1,25(OH)2D3 induced 24(OH)ase transcription” value in test [6] is reported as “markedly enhanced; also recorded: enhanced transcriptional response”.
